Measured values from publication PMC10891682, “In Vitro Metabolism and In Vivo Pharmacokinetics Profiles of Hydroxy-α-Sanshool” (Toxics, 2024).
“And” between values parts separate entries of the source, which are not always exact repeats. Identical values can stand only once.

Test: Plasma protein binding (equilibrium dialysis)
Type: in vitro ADME
Settings: human plasma
Description: PPB assays were carried out using the HTD 96-well equilibrium DIALYZERTM (Htdialysis, Gales Ferry, CT, USA). […] Then, the (solution A) was titrated with the (solution B) to pH 7.4 to prepare the dialysis buffer (solution C). The quench solution (solution D) consisted of Alprazolam (100 nM) and Ketoprofen (2 μM) in acetonitrile.
Total 3 μL of testing plasm samples (dissolved in DMSO, 200 μM) was mixed with 597 μL of plasma (the final concentration was 1 μM). The dialysis membranes were pre-soaked with water (60 min), then with 20% ethanol (20 min), and with dialysis buffer (20 min). Both the plasm samples and the dialysis buffer are 100 μL. Then, the dialysis plate was sealed and incubated at 37 °C with 5% CO2 at 100 rpm for 6 h. After 6 hours’ incubation, 50 μL of samples of the dialysis buffer and plasma samples were collected and re-added to a 96-well plate. Then, 50 μL of blank plasma was added to buffer samples, and 50 μL PBS was added to plasma samples. Subsequently, 300 μL quench solution was added to precipitate protein.
Peak Area Ratio buffer chamber means the conc for free fraction;
Peak Area Ratio plasma chamber means the conc for both free and bound fraction;
Peak Area Ratio total sample means the conc for starting sample before incubation.

SMILES: CC(=O)N1CCN(c2ccc(OCC3COC(Cn4ccnc4)(c4ccc(Cl)cc4Cl)O3)cc2)CC1 (stereo not shown) [Ketoconazole]
- Bound (%) (1 μM, 6 h dialysis, 37 °C): 98.53% and 98.53 ± 4.76%
- Remaining at 6 h (%) (6 h): 110.91 ± 6.04%
- recovery at 6 h, 1 μM (pH 7.4, 1 μM, 6 h dialysis, 37 °C): 92.6 ± 7.48%
- fraction unbound at 6 h, 1 µM (pH 7.4, 1 μM, 6 h dialysis, 37 °C, read-out: Fu (%), unbound fraction): 0.0147 ± 0.0068
